These results are taken from US9314446B2, “Sustained releasing pharmaceutical composition” (priority 2013, dated 2016).

This data set can be described thus: In-vitro release of diclofenac (dialysis bag, PBS, absorbance 300 nm). To be noted: 1 mg/ml, PBS 37° C. The class given is physicochemical. The method, then: In-vitro experiment on agent release of hydrogel is designed to simulate its in-vivo effect. The 500 μg/ml latanoprost-loaded solution were added to the transwell (100 μl/well) mounted on 24-well plates, and 1.5 ml PBS was added in each well and then incubated at 37° C. The 1.5 ml PBS was collected and another 1.5 ml PBS was then replenished at each time (Days 1, 7, 14 and 28). The amount of latanoprost was analyzed by a LC-MS/MS system equipped with an electrospray ionization source. The LC-MS/MS consisted of a Sciex API 3000 tandem mass spectrometer and Agilent 1100 series LC system. Separation of latanoprost was achieved by using a Phenomenex Luna C18 column (particle size 5 um, 50 mm×4.6 mm i.d.). The mobile phase consisted of latanoprost was (A) 0.1% (v/v) formic acid and (B) acetonitrile containing 0.1% formic acid (A:B=7:3, v/v) and delivered at 0.3 ml per minute. The mass spectrometer was operated in positive mode which used multiple reaction monitoring. The precursor to produce ion transition of m/z 374.2→195.2 was monitored. In another experiment, the dialysis bags with molecular weight cut-off of 1 kD were used to retain the diclofenac-loaded hydrogel and allow the released diclofenac to permeate into the release medium (PBS). Briefly, 800 μl diclofenac-loaded hydrogel (1 mg/ml) or diclofenac only (1 mg/ml) was added to a dialysis bag. The sample-loaded dialysis bag was immersed in 30 ml of PBS at 100 rpm and 37° C. At fixed time intervals, the release medium was collected and replaced with an equal amount of PBS. According to the absorption curve of diclofenac, the diclofenac content of the each sample was analyzed by Tecan's Infinite® M 1000 spectrophotometer at the wavelength of 300 nm. […] The percentage of cumulative release at 1, 7, 14 and 28 days were 1.34±0.33, 26.80±5.40, 45.03±2.55 and 67.72±4.25%, respectively. Additives in hydrogel affect its composition, structure and may also change its drug releasing characteristics. […] The percentage of cumulative release of 1 mg/ml diclofenac only group at 5, 18, 24, 48, 75 and 140 hours was 106.08±10.48, 99.34±6.57, 106.62±13.76, 102.28±7.40, 105.75±5.76 and 112.14±7.05%.

Turning to `O=C(O)Cc1ccccc1Nc1c(Cl)cccc1Cl` [diclofenac], the “cumulative release of diclofenac” value by setting is: (5 hours) 106.08±10.48%; (18 hours) 99.34±6.57%; (24 hours) 106.62±13.76%; (48 hours) 102.28±7.40%; (75 hours) 105.75±5.76%; (140 hours) 112.14±7.05%.
